Data: US20240174642A1, “HETEROCYCLIC COMPOUNDS CAPABLE OF ACTIVATING STING” (Boehringer Ingelheim International GmbH, priority 2022, published 2024)

Legend:
dog STING (dSTING) = assay: Dog differential scanning fluorimetry (DSF) assay, thermal shift of dog STING protein; format: binding; conditions: 100 μM compound, 3 μM recombinant dog STING (residues 149 to 375), 5× SYPRO Orange, 2% DMSO
Description: The protein used for the biophysical experiments was a recombinant dog STING protein comprising its cytosolic cGAMP binding ectodomain. A codon optimized DNA sequence (for expression in Escherichia coli) encoding amino acid residues 149 to 375 of dog STING was synthesized by GeneArt (Regensburg, Germany) and inserted into a pET17b E. coli expression vector. The protein construct encodes an N-terminal 8× His-tag followed by tobacco etch virus protease (TEV) cleavage site and the above STING gene sequence. The resulting protein sequence for the used dog STING protein (SEQ ID No. 1) is listed below:
For expression of the above recombinant dog STING, the construct was transformed into E. coli BL21 DE3 strain and grown in shake flasks in LB-medium at 15° C. Expression was induced by addition of isopropyl β-D-1-thiogalactopyranoside to a final concentration of 1 mM and cultures shaken overnight. Cell pellets were centrifuged and stored at −70° C. until further use. Protein was purified by cell thawing in lysis buffer (20 mM TRIS-HCl, pH 8, 500 mM NaCl, 1 mM DTT, 0.5 mg/ml lysozyme, Complete Protease Inhibitor (Roche) and DNase (Roche)), followed by metal affinity purification using Ni-NTA resins and elution buffer consisting of 20 mM TRIS-HCl, pH 8, 500 mM NaCl, 1 mM DTT, 300 mM imidazole. Cleavage of the His-Tag using TEV-protease took place during dialysis in size exclusion buffer (20 mM TRIS-HCl, pH 8, 100 mM NaCl, 1 mM DTT) over night. To further purify the target protein a reverse Nickel affinity column was used and the flow through was applied to a size exclusion chromatography. The peak fraction was collected and concentrated to 5 mg/mL.
Dye fluorescence is quenched in aqueous environment and increases upon association of the dye with the hydrophobic parts of the unfolding protein. […] The inflection point of the curve represents the “melting” temperature of the protein (Tm) which is calculated numerically using the Boltzmann equation.
The thermal stability of the dog STING protein was measured in assay buffer containing 20 mM Tris, 150 mM NaCl at pH7.5. The assay uses 384-Well qPCR Plates (Catalog #781358, BRAND), Microseal®‘B’ Adhesive Seals for PCR Plates (Catalog #MSB-1001, BIO-RAD) and was run on a CFX384 Real-Time System (Bio-Rad). A DMSO stock solution of SYPRO orange (SIGMA 55692-500UL) was prepared. Compound stock solutions (10 mM in DMSO) were diluted 1:2 in DMSO to an intermediate compound concentration of 5 mM and then further diluted 1:40 in assay buffer resulting in a compound concentration of 125 μM and 2.5% DMSO. Fluorescent dye stock solution (5000× SYPRO Orange) was then mixed with target protein and buffer to a concentration of 15 μM Protein and 25× SYPRO Orange. 2 μl of this protein-dye-mixture was added to 8 μl compound solution. Final volume was 10 μL. 3-6 well positions were used as negative control (protein with 2% DMSO). The plates were prepared for duplicate measurement and centrifuged for 2 min at 1000 g. In the measurement, 160 cycles of 0.5° C. were used (temperature ramp 15 s/cycle, 15° C. to 95° C.).
Final Assay concentrations for compound characterization were 100 μM compound, 3 μM target protein, 5× SYPRO Orange, and 2% DMSO in 10 μl. All dispensing steps were performed using a HamiltonStar pipetting robot (Hamilton).
Dissociation curves were processed in Bio-Rad CFX Manager. Peak type was set to “negative”. Compound codes for screen were assigned in the plate layout.
Two replicates of TM measurements were averaged, and the standard deviation was calculated. In cases of SD>1.5° C. the measurement was repeated.
The melting point (Tm) obtained for STING protein alone was subtracted from T obtained for protein incubated with ligand to generate ΔTm values.

STING = assay: Dog whole blood (dWB) assay, IFNb secretion by ELISA; format: cell-based; conditions: Canis lupus familiaris, 4 h incubation at 37° C., % control relative to cGAMP stimulated control, read-out: EC50, cytokine secretion in dog whole blood (dWB) culture system as determined by canine Interferon-beta (IFNb) ELISA
Description: In this assay, freshly collected canine blood is incubated with a STING agonist, and interferon beta levels in the supernatant are quantified by ELISA. […] In accordance with the invention, a combination of a high dDSF and low dWB is especially favorable.
For the detection of STING activation in physiological environment dog whole blood (dWB) was stimulated by the cyclic dinucleotide cGAMP or a test compound. Pathway activity was monitored by measuring the IFNb production.
Compounds were delivered as 10 mM DMSO solution, diluted and transferred by using an Echo acoustic dispenser to the 384well assay plate (Greiner #781182), pre-filled with 10 μl 1× HBSS in each well (10× HBSS (+Ca/+Mg), #14065-049, Gibco). Typically, 8 concentrations were used with the highest concentration at 10 μM in the final assay volume followed by approximately 1:4 dilution steps. DMSO concentration was set to 0.1% in the final assay volume. The 384-well assay plate contained 20 test compounds and DMSO in control and cGAMP standard wells. The dog whole blood was collected as Na-Citrate blood (e.g., 3.8% in Monovettes from Sarstedt) and kept at 4° C. overnight until use in the assay. 80 μl of the whole blood samples were transferred to each well of the 384-well assay plates filled with compound/1×HBSS. Blood plates were kept at room temperature for 60 minutes and continuous shaking with 450 rpm, covered with the lid, but not sealed. A 10× cGAMP assay solution was diluted from a 2 mM stock solution in 1×HBSS immediately before use at room temperature. 10 μl of the 10× cGAMP/HBSS were added to the high control wells, whereas HBSS only was added to all compound and low control wells. After covering assay plates with the lid, blood plates were kept for a 4 h incubation at 37° C. in the incubator, without shaking. For the detection of IFNb in dog plasma the ELISA Kit for Canine Interferon Beta (Biotrend #SEA222Ca) was used. Whole blood assay plates were centrifuged at 1000 g for 10 minutes at 8° C. 40 μl of supernatant was transferred with a 96 well pipetting robotics from the 384 well whole blood plate to the corresponding 96 well ELISA plate, pre-filled with […] assay diluent in each well. Plates were sealed with microplate seals and kept at 4° C. overnight again. ELISA plates were brought to room temperature, followed by a 1 h incubation at 37° C. in the incubator. Detection Reagent A working solution was prepared by diluting Detection Reagent A 1:100 in Assay Reagent A. Liquid was then removed from the 96 well ELISA plate to add 100 μL Detection Reagent A working solution to each well. ELISA plates were covered with the plate sealer and incubated for 1 hour at 37° C. in the incubator. The 1× Wash buffer was prepared by diluting the 30× Wash Buffer Concentrate in H2O. Detection Reagent B working solution was prepared by diluting Detection Reagent B 1:100 in Assay Reagent B. The ELISA plates were washed three times with 350 μl wash buffer and afterwards inverted and blotted against absorbent paper to remove any liquid. 100 μL of Detection Reagent B working solution was added to each well of the ELISA plates, which are then covered with the plate sealer and incubated for 30 minutes at 37° C. in the incubator. After incubation the ELISA assay plates were washed five times with 350 μl wash buffer and were again inverted and blotted against absorbent paper to remove any remaining liquid. 90 μL of TMB Substrate was added to each well of the ELISA plates, which were then covered with the plate sealer and incubated for 15 minutes at 37° C. in the incubator. The reaction was stopped by adding 50 μL stop solution and absorbance was measured at 450 nm immediately.
For data evaluation and calculation, % control calculation of each well was based on the mean of high (cGAMP stimulated control) and mean of low (unstimulated control) controls by using the following standard 4 parameter logistic regression formula: […]

With Cc1cccc2c(-c3cccc4nn(C)cc34)nn(-c3ccc(N4CC5CCC4CC5C(=O)O)nc3)c12 (centres unmarked) [Example 6, 2-(5-{2′,7-dimethyl-1H,2′H-[3,4′-biindazol]-1-yl}pyridin-2-yl)-2-azabicyclo[2.2.2]octane-5-carboxylic acid] the “Delta TM, interaction with dog STING as determined by DSF (dDSF)” value (dog STING (dSTING)) was 34.0 °C and the EC50 (STING) was 417 nM.
